{"source": "paper PMC7795518", "about": "“Insights into the Interaction of LVV-Hemorphin-7 with Angiotensin II Type 1 Receptor” (International Journal of Molecular Sciences, 2020)", "key": {"[1]": {"test_system": "dopamine 1 receptor", "conditions": "allosteric modulator binding preferentially to ICL2; cited from earlier work", "source_text": "Positive allosteric binding sites of GPCRs have been identified in the past. However, recent studies have […] the potential of positive allosteric modulators in multiple GPCRs using in vitro and in silico approaches. Allosteric binding sites located near the extracellular (EC) face and IC face in different GPCRs have been documented. Allosteric sites near the orthosteric site in GPCRs often block the entry of other ligands. However, this would not be a problem for allosteric ligands that target the IC region. DETQ, an al ..."}, "[2]": {"biological_target": "T1, AngII type 1 receptor (AT1R) (Homo sapiens, UniProt P30556)", "T1 construct": "host or cells: HEK293FT", "T1 sequence (P30556 1-359)": "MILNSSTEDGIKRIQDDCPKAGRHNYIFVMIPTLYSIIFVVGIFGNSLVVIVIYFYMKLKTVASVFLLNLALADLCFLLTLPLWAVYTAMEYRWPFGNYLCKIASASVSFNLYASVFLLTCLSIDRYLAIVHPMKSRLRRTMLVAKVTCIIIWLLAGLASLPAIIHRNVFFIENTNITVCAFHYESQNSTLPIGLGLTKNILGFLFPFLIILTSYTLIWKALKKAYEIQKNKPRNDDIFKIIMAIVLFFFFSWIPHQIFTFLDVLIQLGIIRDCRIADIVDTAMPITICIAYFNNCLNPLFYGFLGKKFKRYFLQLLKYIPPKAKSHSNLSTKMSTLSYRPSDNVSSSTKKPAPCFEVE", "experiment": "Saturation NanoBRET binding of BODIPY-AngII to Nluc-AT1R in live HEK293FT cells", "procedure": "Figure 1 Saturation binding of BODIPY-angiotensin II (AngII) to AngII type 1 receptor (AT1R) using NanoBRET assay in live HEK293FT cells. HEK293FT cells transiently expressing Nluc-AT1R (NanoBRET donor) were first treated with 10 μM LVV-H7 or vehicle (A) or 1 μM olmesartan medoxomil or vehicle (B) for 20 min at 37 °C. […] Data are mean ± SEM of four (A) or three (B) independent experiments performed in duplicate.\n(A) HEK293FT cells transiently expressing Nluc-AT1R (NanoBRET donor) were first treated with 1 μM olmesartan medoxomil or vehicle and then immediately treated with 0, 10, or 100 μM LVV-H7. […] Specific binding curves were generated by subtracting olmesartan medoxomil-treated wells from vehicle-treated wells for each concentration of LVV-H7.\n(§1) The NanoLuc-AT1R coding plasmid (Promega, Madison, WI, USA) was used for its transient expression in HEK293FT cells as previously reported.\n(§2) Human embryonic kidney (HEK) 293FT cells (Thermo Fisher Scientific) were cultured and maintained at 37 °C, 5% CO2 in complete medium (Dulbecco’s modified Eagle’s medium (DMEM) containing 0.3 mg/mL glutamine, 100 IU/mL penicillin, and 100 μg/mL streptomycin) supplemented with 10% fetal calf serum (FCS) (Bovogen Biologicals, Victoria, Australia) and 400 μg/mL Geneticin (Thermo Fisher Scientific). Transient transfections were carried out 24 h after seeding 600,000 cells/well of a 6-well plate. FuGENE 6 (Promega) transfection reagent was used according to the manufacturer’s instructions. Cells were harvested with 0.05% Trypsin-EDTA 24 h after transfection and seeded into poly-L-lysine (Sigma Aldrich) coated white 96-well plates (Greiner Bio-One, Frickenhausen, Germany) at 80,000 cells/well in phenol red-free DMEM containing 25 mM HEPES, 0.3 mg/mL glutamine, 100 IU/mL penicillin, and 100 μg/mL streptomycin supplemented with 5% FCS.\nThe NanoLuc substrate furimazine (Promega) was then added to a final concentration of 10 μM and light emission was measured at 37 °C using the filters 450 nm (80-nm bandpass) and >610 nm (longpass) on the LUMIstar or CLARIOstar multilabel plate reader (BMG Labtech (Australia), Mornington, VIC, Australia).\nThe NanoBRET ratios were determined by dividing the >610 nm (longpass) emission by 450 nm (80-nm bandpass) emission and subtracting the background ratio. Then, the percentage of NanoBRET signals were calculated as described in figure legends. The saturation and kinetic curves were fitted with the appropriate nonlinear regression equations using GraphPad Prism software (San Diego, CA, USA). Statistical analyses were performed with paired one-way ANOVA or paired t-tests as appropriate to determine statistical significance between the different conditions. **** p-value < 0.0001, *** p-value < 0.001, ** p-value < 0.01, * p-value < 0.05, and ns p-value > 0.05."}, "[3]": {"test_system": "AT1R", "conditions": "HEK293 cells; Gαq/inositol phosphate pathway and ERK1/2 phosphorylation; cited from earlier work", "source_text": "Hemorphins are endogenous hemoglobin-derived peptides implicated in numerous physiological and pathophysiological situations including spatial learning, inflammation, analgesia, and transient hypotension. The molecular targets of hemorphins comprise the cell-surface G protein-coupled receptor (GPCR) members such as the opioid receptors and also the membrane AngIV receptor [3, 8]. Moreover, hemorphins are also known for their inhibitory effects on the angiotensin-converting enzyme (ACE), a key enzyme in the renin–angiotensin system (RAS). ..."}, "[4]": {"biological_target": "T1, AngII type 1 receptor (AT1R)", "experiment": "Real-time NanoBRET kinetics of BODIPY-AngII binding to Nluc-AT1R in live HEK293FT cells", "conditions": "10 μM LVV-H7, 30 min pre-incubation, 100 nM BODIPY-AngII", "procedure": "as §1, §2\nThe NanoBRET ratios were determined by dividing the >610 nm (longpass) emission by 450 nm (80-nm bandpass) emission and subtracting the background ratio. Then, the percentage of NanoBRET signals were calculated as described in figure legends. […]"}}}
{"compound": "C[C@H]1c2cccc(C(C)(C)O)c2C[C@H](CO)N1C(=O)Cc1c(Cl)cccc1Cl", "note": "[DETQ]", "values": [{"measurement": "effect on potency of dopamine", "setting": "[1]", "result": "significantly enhanced the potency of dopamine"}]}
{"compound": "CCCc1nc(C(C)(C)O)c(C(=O)OCc2oc(=O)oc2C)n1Cc1ccc(-c2ccccc2-c2nnn[nH]2)cc1", "note": "[olmesartan medoxomil, reference compound]", "values": [{"measurement": "displacement of BODIPY-AngII binding", "setting": "[2]; 1 μM olmesartan medoxomil, 20 min at 37 °C before BODIPY-AngII 40 min, three independent experiments in duplicate", "result": "~ 75%"}]}
{"compound": "LVVYPWTQRF [LVV-H7, LVV-hemorphin-7, decapeptide LVV-hemorphin-7 ([…]) (New England Peptide)]", "values": [{"measurement": "competition for binding with BODIPY-AngII", "setting": "[2]; 10 μM LVV-H7, 20 min at 37 °C before BODIPY-AngII 40 min, four independent experiments in duplicate", "result": "did not compete for binding with BODIPY-AngII"}, {"measurement": "effect on maximum binding (Bmax) of BODIPY-AngII", "setting": "[2]; LVV-H7 0, 10, 100 μM, saturation binding, n = 6", "result": "without altering the maximum binding"}, {"measurement": "decrease of AngII's kD", "setting": "[2]; NanoBRET in HEK293FT cells, effect of LVV-H7", "result": 2.6, "unit": "fold"}, {"measurement": "effect on binding of BODIPY-AngII", "setting": "[2]; increasing LVV-H7 (0, 10, 100 μM), n = 6", "result": "significantly potentiated the binding of BODIPY-AngII"}, {"measurement": "modulation of AT1R activity and downstream signaling", "setting": "[3]", "result": "positive modulation of its activity and downstream signaling pathways in HEK293 cells"}, {"measurement": "effect on maximal binding of BODIPY-AngII (kinetics)", "setting": "[4]; n = 4, p < 0.05", "result": "significantly increased the maximal binding of BODIPY-AngII"}, {"measurement": "effect on binding rate (T1/2) of BODIPY-AngII", "setting": "[4]; n = 4, p > 0.05", "result": "no effect on the binding rate"}]}
